Measurements as given in US7829567B2, “Imino-indeno[1,2-c] quinoline derivatives, their preparation processes, and pharmaceutical compositions comprising the same” (Kaohsiung Medical University, priority 2007, dated 2010).
Read-outs that look alike come from different tables or passages of the source.

What was measured:
[1] = system: oral squamous cell carcinoma (SAS); test: In vitro anticancer assay (MTT), SAS; assay type: cell-based; settings: SAS cells, 48 hrs, mean ± spread, read-out: Anti-proliferative evaluation IC50, SAS
Method in brief: (§1)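 MTT viability assay read at 570 nm, with formazan dissolved in DMSO. Growth was expressed as percent of control, (Abtreated/Abcontrol)×100, using mean absorbance (n=3).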

[2] = system: human cervical epithelioid carcinoma (HeLa); test: In vitro anticancer assay (MTT), HeLa; assay type: cell-based; settings: HeLa cells, 48 hrs, mean ± spread, read-out: Anti-proliferative evaluation IC50, HeLa
Method in brief: as §1

[3] = system: esophageal carcinoma (CE81T); test: In vitro anticancer assay (MTT), CE81T; assay type: cell-based; settings: CE81T cells, 48 hrs, mean ± spread, read-out: Anti-proliferative evaluation IC50, CE81T
Method in brief: as §1

cancer cells = test: In vitro anticancer assay, summary over the six cancer cells; assay type: cell-based; settings: summary of Table 2
Experimental: Six cancer cells, i.e., cells of human cervical epithelioid carcinoma (HeLa), hepatocellular carcinoma (SKHep1), oral squamous cell carcinoma (SAS), human stomach adenocarcinoma (AGS), human renal clear cell carcinoma (RCC 768-O) and esophageal carcinoma (CE81T), were treated with the selected compounds as indicated for 48 hrs in a medium containing 10% FBS (3-[4,5-Dimethylthiazol-2-yl]-2,5-diphenyltetrazolium bromide (MTT, 2 mg/mL, […]) was added to the cultures and incubated during the final 1.5 hrs. The resultant tetrazolium salt was then dissolved by the addition of dimethyl sulfoxide. Color was measured spectrophotometrically in a microtiter plate reader at 570 nm and used as a relative measure of viable cell number. The number of viable cells after treatment was compared to solvent and untreated control cells and used to determine the percent of control growth as (Abtreated/Abcontrol)×100, where Ab represents the mean absorbance (n=3). The concentration that killed 50% of cells (IC50) was determined from the linear portion of the curve by calculating the concentration of agent that reduced absorbance in treated cells, as compared to control cells, by 50% (S. D. Heo et al. (1990), Cancer Res., 50:3681-3690). (+)-camptothecin (CPT) and doxorubicin hydrochloride (Dox) were used for comparison with the compounds according to this invention.

[4] = system: hepatocellular carcinoma (SKHep1); test: In vitro anticancer assay (MTT), SKHep1; assay type: cell-based; settings: 48 hrs, mean ± spread, read-out: Anti-proliferative evaluation IC50, SKHep1
Method in brief: as §1

[5] = system: human renal clear cell carcinoma; test: In vitro anticancer assay (MTT), RCC 768-O; assay type: cell-based; settings: RCC 768-O cells, 48 hrs, mean ± spread, read-out: Anti-proliferative evaluation IC50, RCC 768-O
Method in brief: as §1

[6] = system: human stomach adenocarcinoma (AGS); test: In vitro anticancer assay (MTT), AGS; assay type: cell-based; settings: AGS cells, 48 hrs, mean ± spread, read-out: Anti-proliferative evaluation IC50, AGS
Method in brief: as §1

[7] = Homo sapiens, SK-HEP1, SKHep1 cells

IC50 [1] [µM] | IC50 [2] [µM] | IC50 [3] [µM] | IC50 ([4]; SKHep1 cells) [µM] | IC50 [5] [µM] | IC50 [6] [µM] | melting point [°C] | IC50 ([2]; Homo sapiens) [µM] | IC50 [4, 7] [µM] | IC50 ([5]; Homo sapiens) [µM] | IC50 ([6]; Homo sapiens) [µM] | Structure (SMILES) | anticancer activity (in words) (cancer cells)
5.1 ± 0.8 | 0.4 ± 0.1 | 4.9 ± 1.5 | 0.7 ± 0.3 | 1.7 ± 0.5 | 4.1 ± 1.2 | – | – | – | – | – | COc1cccc2c1C(=O)c1c-2c(N2CCNCC2)nc2ccccc12 [Compound 5bb] | broad and potent anticancer activity
6.5 ± 0.9 | – | 6.8 ± 1.2 | – | – | – | 251 to 252 | 7.2 ± 0.9 | 7.4 ± 2.1 | 9.1 ± 1.5 | 5.9 ± 1.4 | COc1ccc2c(c1)C(=O)c1c-2c(Nc2ccc(C(C)=O)cc2)nc2ccccc12 [Compound 5s, 6-(4-Acetylphenylamino)-9-methoxy-11H-indeno[1,2-c]quinolin-11-one] | –
> 30 | – | > 30 | – | – | – | 150 to 151 | 15.2 ± 1.5 | 25.3 ± 15.5 | 12.5 ± 1 | 10.1 ± 1.2 | COc1ccc2c(c1)C(=O)c1c-2c(N2CCNCC2)nc2ccccc12 [Compound 5x, 9-Methoxy-6-(piperazin-1-yl)-11H-indeno[1,2-c]quinolin-11-one] | –
